Structures are written as SMILES. Several values for one entry are separate records, joined by “and”; a condition that tells them apart may be missing. Identical values can stand only once.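 Test compounds were applied to cells in 96-well plates for 48 hours at 5 doses. At the GI50, growth is halved. TGI: total growth inhibition.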

Among the test systems are A549 NSCLC; HCT-116 colon; HS 578T breast; MCF7 breast; MDA-MB-231 breast; MDA-MB-435; SF-539 CNS; SNB-19 CNS.
Common to all, as to experiment: growth of human tumour cells (NCI), 48 h

For the compound `CN(CCCNC(=O)c1cn(C)c2c1Cc1ccccc1-2)CCCNC(=O)c1cn(C)c2c1Cc1ccccc1-2`, the TGI in the assay on A549 NSCLC came to 32.3 µM; with HCT-116 colon, 22.2 µM; in the assay on HS 578T breast, 25.2 µM; in the assay with MCF7 breast, 25.4 µM; in the assay on MDA-MB-231 breast, 27.4 µM; in the assay on MDA-MB-435 it was 5.16 µM. For the same compound, the TGI worked out at 31.8 µM in the assay on SF-539 CNS and 24.1 µM with SNB-19 CNS.

For the compound `Cc1ccc2nc(C(C)C)c(=O)[nH]c2c1`, the TGI with A549 NSCLC, with HCT-116 colon, in the assay with HS 578T breast, with MCF7 breast, in the assay with MDA-MB-231 breast and in the assay on MDA-MB-435 was > 100 µM in each case. In addition, the TGI in the assay on SF-539 CNS and in the assay on SNB-19 CNS was > 100 µM each time.

Take `COC(=O)CCNC(=O)OCc1ccccc1`: the TGI with A549 NSCLC, in the assay with HCT-116 colon, with HS 578T breast, with MCF7 breast, with MDA-MB-231 breast and with MDA-MB-435 was > 100 µM throughout. In addition, the TGI in the assay on SF-539 CNS and in the assay with SNB-19 CNS was > 100 µM each time.

Turning to `CCCCc1ccc(Nc2nc(OC)c3ncn(C4CC(O)C(CO)O4)c3n2)cc1` (configuration not stated), the TGI with A549 NSCLC is 39.3 µM; with HCT-116 colon, 29.8 µM; with HS 578T breast, 42 µM; in the assay on MCF7 breast, 29.4 µM; in the assay on MDA-MB-231 breast, 38 µM; in the assay on MDA-MB-435, 36.6 µM. Besides, the TGI in the assay on SF-539 CNS is 29 µM; in the assay on SNB-19 CNS it was 34.3 µM.

As for `COc1ccc(COC(=O)NCC(=O)NC(C)C(=O)NC(Cc2ccccc2)C(=O)OCc2ccccc2)cc1` (configuration not stated), the GI50 in the assay on A549 NSCLC is 18.8 µM and > 100 µM; in the assay on SF-539 CNS it was 12.6 µM and 28.7 µM; in the assay on SNB-19 CNS it was 21.5 µM and > 100 µM. Besides, the TGI was 41.2 µM and > 100 µM in the assay with A549 NSCLC; > 100 µM in the assay on HCT-116 colon; 70.3 µM and 63.9 µM in the assay on HS 578T breast; 30.7 µM and 34.9 µM in the assay with MCF7 breast; 46.2 µM and 68.3 µM with MDA-MB-231 breast; 47.3 µM and 71.7 µM in the assay with MDA-MB-435. The TGI with SF-539 CNS was 25.1 µM and > 100 µM; with SNB-19 CNS, 41.1 µM and > 100 µM.

For the compound `CC(C)=CCCC(C)CCOS(=O)C(F)(F)F` (configuration not stated), the TGI in the assay with A549 NSCLC was 72.1 µM; in the assay on HCT-116 colon, 30.3 µM; in the assay with HS 578T breast it was 5.31 µM; in the assay on MCF7 breast, > 100 µM; in the assay on MDA-MB-231 breast, 61.4 µM; in the assay with MDA-MB-435, 37.1 µM. Also, the TGI was > 100 µM with SF-539 CNS and 78 µM in the assay on SNB-19 CNS.

Turning to `CCOP(=O)(OCC)C(NC(=O)C(C(F)(F)F)C(F)(F)F)c1ccccc1` (configuration not stated), the TGI with A549 NSCLC, with HCT-116 colon, in the assay with HS 578T breast, in the assay on MCF7 breast, in the assay on MDA-MB-231 breast and with MDA-MB-435 was > 100 µM in each case. For the same compound, the TGI in the assay on SF-539 CNS and in the assay with SNB-19 CNS was > 100 µM throughout.

For the compound `COC(=O)c1cc(NC(=O)Cc2c[nH]c3ccccc23)cn1C`, the TGI in the assay on A549 NSCLC, in the assay on HCT-116 colon, with HS 578T breast, in the assay on MCF7 breast, in the assay with MDA-MB-231 breast and in the assay with MDA-MB-435 was > 100 µM throughout. In addition, the TGI with SF-539 CNS and in the assay with SNB-19 CNS was > 100 µM each time.

Consider `CCOP(=O)(OCC)C(C(=O)OC)C(=O)C(=O)Nc1cccc(O)c1` (configuration not stated), for which the TGI with A549 NSCLC, in the assay on HCT-116 colon, in the assay on HS 578T breast, in the assay on MCF7 breast, with MDA-MB-231 breast and in the assay on MDA-MB-435 was > 100 µM throughout. Besides, the TGI with SF-539 CNS and with SNB-19 CNS was > 100 µM each time.

With `CCCSc1ccc2[nH]c(N3C(=O)/C(=C/c4ccc(SC)cc4)N=C3c3ccccc3)cc2c1`, the TGI with A549 NSCLC was > 50 µM; in the assay with HCT-116 colon it was > 50 µM; with HS 578T breast, > 50 µM; in the assay on MCF7 breast it was > 50 µM; in the assay on MDA-MB-231 breast, > 50 µM; with MDA-MB-435, 21.2 µM. Besides, the TGI with SF-539 CNS is 48.8 µM; with SNB-19 CNS it was > 50 µM.

Take `O=C(CSCC(=O)N/N=C\c1cccc([N+](=O)[O-])c1)N/N=C\c1cccc([N+](=O)[O-])c1`: the TGI was > 100 µM with A549 NSCLC; > 100 µM in the assay with HCT-116 colon; > 100 µM with HS 578T breast; > 100 µM in the assay with MCF7 breast; 53.8 µM in the assay on MDA-MB-231 breast; > 100 µM in the assay with MDA-MB-435. Further, the TGI was 84.7 µM in the assay on SF-539 CNS and > 100 µM in the assay on SNB-19 CNS.

As for `COc1ccccc1C(O)[C@@H]1C[C@@H]2[C@H]3CC[C@@](C)([C@@H]2O1)C3(C)C` (some centres not stated), the TGI in the assay with A549 NSCLC was 43.4 µM; with HCT-116 colon it was 43.1 µM; with HS 578T breast it was 35.3 µM; in the assay with MCF7 breast it was 41.7 µM; in the assay on MDA-MB-231 breast, 34.4 µM; in the assay with MDA-MB-435 it was 34.4 µM. The values for the TGI in the assay with SF-539 CNS and in the assay on SNB-19 CNS were 24.2 µM and 39 µM, respectively.

For `N[C@@H]1CCN(c2c(F)cc3c(=O)c(C(=O)O)cn4c3c2Oc2cc3c(ccc5ccccc53)cc2-4)C1`, the TGI in the assay on A549 NSCLC is > 100 µM; in the assay with HCT-116 colon, 18.5 µM; in the assay with HS 578T breast, > 100 µM; with MCF7 breast it was > 100 µM; in the assay on MDA-MB-231 breast, > 100 µM; in the assay with MDA-MB-435 it was > 100 µM. For the same compound, the TGI was 28.5 µM in the assay on SF-539 CNS and > 100 µM with SNB-19 CNS.
